Laboratory results reported in patent US10501441B2, “Substituted imidazolylcarboxamides as pesticides” (BAYER CROPSCIENCE AKTIENGESELLSCHAFT, priority 2016, dated 2019).
Like-named read-outs stand apart in the source and are kept apart here.

Tests used:
[1] = log P by reversed-phase HPLC (C18), EEC directive 79/831 Annex V.A8, neutral range; assay type: physicochemical; conditions: pH 7.8; for chromatographic logP: reversed-phase HPLC column (C18), read-out: Logp [n]
Protocol: a) The log P values reported in the tables and preparation examples above were determined in accordance with EEC directive 79/831 Annex V.A8 by HPLC (High Performance Liquid Chromatography) using a reversed-phase column (C18). Temperature 43° C. The calibration is effected with unbranched alkan-2-ones (having 3 to 16 carbon atoms), for which the log P values are known. […] The log P values for the acidic range (as log P [a]) and/or for the neutral range (as log P [n]) were stated in the tables and preparation examples above.

Myzus persicae [2] = assay: Myzus persicae - oral test (MYZUPE O); assay type: in vivo; conditions: for Emax at 0.8 ppm / Emax at 4 ppm / pest or weed control at 20 ppm: Myzus persicae, po, 120 h; for Emax at 0.8 ppm / Emax at 4 ppm: MYZUPE O, 5 dat, read-out: % efficacy; for pest or weed control at 20 ppm / efficacy (aphids killed): after 5 days, 20 ppm; for pest or weed control at 20 ppm: read-out: efficacy (aphids killed)
Protocol: Solvent: 100 parts by weight of acetone
50 μl of the active compound preparation are transferred into microtitre plates and made up to a final volume of 200 μl with 150 μl of IPL41 insect medium (33%+15% sugar). Subsequently, the plates are sealed with parafilm, which a mixed population of green peach aphids (Myzus persicae) within a second microtitre plate is able to puncture and imbibe the solution through it.
After 5 days, the efficacy in % is determined. 100% means that all the aphids have been killed; 0% means that no aphids have been killed.
Myzus persicae—Oral Test (MYZUPE O)
(§1) After the desired period of time (dat), the efficacy in % is determined. 100% means that all the aphids have been killed; 0% means that no aphids have been killed.

Myzus persicae [3] = assay: Myzus persicae - spray test (MYZUPE); assay type: in vivo; conditions: for Emax at 100 g/ha / pest or weed control at 500 g/ha: Myzus persicae; for Emax at 100 g/ha: MYZUPE, 100 g of ai/ha, read-out: % efficacy; for pest or weed control at 500 g/ha: foliar, read-out: efficacy (aphids killed); for pest or weed control at 500 g/ha / efficacy (aphids killed): Chinese cabbage leaf discs, after 5-6 days, 500 g/ha
Protocol: Myzus persicae—Spray Test
Solvents: 78 parts by weight of acetone • • 1.5 parts by weight of dimethylformamide
(§2) Emulsifier: alkylaryl polyglycol ether
After 5-6 days, the efficacy in % is determined. 100% means that all the aphids have been killed; 0% means that no aphids have been killed.
Myzus persicae—Spray Test (MYZUPE)
(§3) Solvents: 78.0 parts by weight of acetone • • 1.5 parts by weight of dimethylformamide
as §1

Tetranychus urticae = Tetranychus urticae - spray test, OP-resistant (TETRUR); assay type: in vivo; conditions: for Emax at 500 g/ha: Tetranychus urticae, 144 h, TETRUR, 6 dat, read-out: % efficacy; for efficacy (spider mites killed): 500 g/ha, bean leaf discs, after 6 days
Protocol: Tetranychus urticae—Spray Test, OP-Resistant
as §3, §2
After 6 days, the efficacy in % is determined. 100% means that all the spider mites have been killed; 0% means that no spider mites have been killed.
Tetranychus urticae—Spray Test; OP Resistant (TETRUR)
After the desired period of time (dat), the efficacy in % is determined. 100% means that all the spider mites have been killed; 0% means that none of the spider mites have been killed.

Boophilus microplus = Boophilus microplus - injection test; assay type: in vivo; conditions: 20 μg/animal, engorged adult female cattle ticks, after 7 days
Protocol: Boophilus microplus—Injection Test
Solvent: dimethyl sulphoxide
To produce a suitable preparation of active compound, 10 mg of active compound are mixed with 0.5 ml of solvent and the concentrate is diluted with solvent to the desired concentration.
1 μl of the active compound solution is injected into the abdomen of 5 engorged adult female cattle ticks (Boophilus microplus). The animals are transferred into dishes and kept in a climate-controlled room.
Efficacy is assessed after 7 days by laying of fertile eggs. Eggs which are not visibly fertile are stored in a climate-controlled cabinet until the larvae hatch after about 42 days. An efficacy of 100% means that none of the ticks has laid any fertile eggs; 0% means that all the eggs are fertile.

[4] = neutral range, HPLC C18, 43° C.

## CN(C(=O)c1cnc(Cl)n1C)c1cccnc1 [2-Chloro-N, 1-dimethyl-N-(pyridin-3-yl)-1H-imidazole-5-carboxamide]
[1]; [4]
  chromatographic logP: 0.88

## O=C(Nc1cccnc1)c1c[nH]cn1 [Ex. No. 13 WO2011/009804, reference compound]
Myzus persicae [2]
  Emax at 0.8 ppm: 0%
  Emax at 4 ppm: 0%
Myzus persicae [3]; 144 h, 6 dat
  Emax at 100 g/ha: 0%
Tetranychus urticae
  Emax at 500 g/ha: 0%

## Cc1nc(C(=O)Nc2cccnc2)c[nH]1 [Ex. No. 14 WO2011/009804, reference compound]
Myzus persicae [2]
  Emax at 0.8 ppm: 0%
  Emax at 4 ppm: 0%
Myzus persicae [3]; 5/6 dat
  Emax at 100 g/ha: 0%
Tetranychus urticae
  Emax at 500 g/ha: 0%

## CN(C(=O)c1cnc(-n2cccc2)n1C)c1cccnc1 [I-1-001]
[1]; [4]
  chromatographic logP: 1.27
Myzus persicae [2]
  pest or weed control at 20 ppm: 100%
  Emax at 0.8 ppm: 100%
  Emax at 4 ppm: 100%
Myzus persicae [3]; 144 h, 6 dat
  Emax at 100 g/ha: 90%
Myzus persicae [3]
  pest or weed control at 500 g/ha: 90%

## CN(C(=O)c1cnc(-n2cccn2)n1C)c1cccnc1 [I-1-002]
[1]; [4]
  Logp [n]: 1.01
Myzus persicae [2]
  efficacy (aphids killed): 100%
Myzus persicae [3]
  efficacy (aphids killed): 90%

## CN(C(=O)c1cnc(-n2ccc(C#N)n2)n1C)c1cccnc1 [I-1-003]
[1]; [4]
  Logp [n]: 1.31
Myzus persicae [2]
  efficacy (aphids killed): 100%
Myzus persicae [3]
  efficacy (aphids killed): 90%

## CN(C(=O)c1cnc(-n2ccc(Cl)n2)n1C)c1cccnc1 [I-1-004]
[1]; [4]
  chromatographic logP: 1.48
Myzus persicae [2]
  pest or weed control at 20 ppm: 100%
  Emax at 0.8 ppm: 100%
  Emax at 4 ppm: 100%
Myzus persicae [3]; 144 h, 6 dat
  Emax at 100 g/ha: 90%
Myzus persicae [3]
  pest or weed control at 500 g/ha: 100%

## CN(C(=O)c1cnc(-n2cc(Cl)cn2)n1C)c1cccnc1 [I-1-005]
[1]; [4]
  Logp [n]: 1.49
Myzus persicae [2]
  efficacy (aphids killed): 100%
Myzus persicae [3]
  efficacy (aphids killed): 90%

## CN(C(=O)c1cnc(-n2cc(C(F)(F)F)cn2)n1C)c1cccnc1 [I-1-006]
[1]; [4]
  chromatographic logP: 1.82
Myzus persicae [2]
  pest or weed control at 20 ppm: 100%
  Emax at 0.8 ppm: 100%
Myzus persicae [3]; 144 h, 6 dat
  Emax at 100 g/ha: 100%
Myzus persicae [3]
  pest or weed control at 500 g/ha: 100%

## CN(C(=O)c1cnc(-n2ccc(C(F)(F)F)n2)n1C)c1cccnc1 [I-1-007, N,1-dimethyl-N-(pyridin-3-yl)-2-[3-(trifluoromethyl)-1H-pyrazol-1-yl]-1H-imidazole-5-carboxamide]
[1]; [4]
  chromatographic logP: 1.87
Myzus persicae [2]
  pest or weed control at 20 ppm: 100%
Myzus persicae [3]
  pest or weed control at 500 g/ha: 100%

## CN(C(=O)c1cnc(-n2cc(C#N)cn2)n1C)c1cccnc1 [I-1-008]
[1]; [4]
  Logp [n]: 1.14
Myzus persicae [2]
  efficacy (aphids killed): 100%
Myzus persicae [3]
  efficacy (aphids killed): 100%

## CN(C(=O)c1cnc(N2CCOCC2)n1C)c1cccnc1 [I-1-009, N,1-Dimethyl-2-(morpholin-4-yl)-N-(pyridin-3-yl)-1H-imidazole-5-carboxamide]
[1]; [4]
  chromatographic logP: 0.85
Myzus persicae [2]
  pest or weed control at 20 ppm: 100%
  Emax at 0.8 ppm: 70%
Myzus persicae [3]; 144 h, 6 dat
  Emax at 100 g/ha: 70%
Myzus persicae [3]
  pest or weed control at 500 g/ha: 100%
Tetranychus urticae
  efficacy (spider mites killed): 90%
  Emax at 500 g/ha: 90%

## CN(C(=O)c1cnc(-n2cnc(C(F)(F)F)c2)n1C)c1cccnc1 [I-1-010]
[1]; [4]
  chromatographic logP: 1.38
Myzus persicae [2]
  pest or weed control at 20 ppm: 100%
  Emax at 0.8 ppm: 100%
  Emax at 4 ppm: 100%
Myzus persicae [3]; 144 h, 6 dat
  Emax at 100 g/ha: 70%
Myzus persicae [3]
  pest or weed control at 500 g/ha: 100%

## COc1ncn(-c2ncc(C(=O)N(C)c3cccnc3)n2C)n1 [I-1-011]
Myzus persicae [2]
  Emax at 0.8 ppm: 90%
  Emax at 4 ppm: 90%
Myzus persicae [3]; 120 h, 5 dat
  Emax at 100 g/ha: 70%

## CSc1ncn(-c2ncc(C(=O)N(C)c3cccnc3)n2C)n1 [I-1-011]
[1]; [4]
  Logp [n]: 1.27
Myzus persicae [2]
  efficacy (aphids killed): 100%
Myzus persicae [3]
  efficacy (aphids killed): 100%

## CSc1ccn(-c2ncc(C(=O)N(C)c3cccnc3)n2C)n1 [I-1-012]
[1]; [4]
  Logp [n]: 1.57
Myzus persicae [2]
  efficacy (aphids killed): 100%
Myzus persicae [3]
  efficacy (aphids killed): 90%

## CN(C(=O)c1cnc(N2CCCCC2)n1C)c1cccnc1 [I-1-013]
[1]; [4]
  Logp [n]: 1.53
Myzus persicae [2]
  efficacy (aphids killed): 100%
Myzus persicae [3]
  efficacy (aphids killed): 100%

## CCN(C(=O)c1cnc(-n2cc(C(F)(F)F)cn2)n1C)c1cccnc1 [I-1-014]
[1]; [4]
  Logp [n]: 2.09
Myzus persicae [2]
  efficacy (aphids killed): 100%
Myzus persicae [3]
  efficacy (aphids killed): 90%

## CCN(C(=O)c1cnc(-n2cc(C#N)cn2)n1C)c1cccnc1 [I-1-015]
[1]; [4]
  chromatographic logP: 1.42
Myzus persicae [2]
  pest or weed control at 20 ppm: 100%
  Emax at 0.8 ppm: 100%
  Emax at 4 ppm: 100%
Myzus persicae [3]
  pest or weed control at 500 g/ha: 90%
Tetranychus urticae
  efficacy (spider mites killed): 90%
  Emax at 500 g/ha: 90%

## CC1CCN(c2ncc(C(=O)N(C)c3cccnc3)n2C)CC1 [I-1-016]
[1]; [4]
  Logp [n]: 1.87
Myzus persicae [2]
  efficacy (aphids killed): 100%
Myzus persicae [3]
  efficacy (aphids killed): 90%

## CN(C(=O)c1cnc(N2CCC(C#N)CC2)n1C)c1cccnc1 [I-1-017]
[1]; [4]
  chromatographic logP: 1.16
Myzus persicae [2]
  pest or weed control at 20 ppm: 100%
  Emax at 0.8 ppm: 100%
  Emax at 4 ppm: 100%
Myzus persicae [3]; 120 h, 5 dat
  Emax at 100 g/ha: 90%
Myzus persicae [3]
  pest or weed control at 500 g/ha: 100%

## CN(C(=O)c1cnc(N2CCC(c3ccccc3)CC2)n1C)c1cccnc1 [I-1-018]
[1]; [4]
  Logp [n]: 2.38
Myzus persicae [2]
  efficacy (aphids killed): 100%
Myzus persicae [3]
  efficacy (aphids killed): 100%

## CN(C(=O)c1cnc(N2CCCC2)n1C)c1cccnc1 [I-1-019]
[1]
  Logp [n]: 1.19
Myzus persicae [2]
  efficacy (aphids killed): 100%
Myzus persicae [3]
  efficacy (aphids killed): 100%

## CC1CC(C)CN(c2ncc(C(=O)N(C)c3cccnc3)n2C)C1 (centres unmarked) [I-1-020]
[1]; [4]
  Logp [n]: 2.21
Myzus persicae [2]
  efficacy (aphids killed): 100%
Myzus persicae [3]
  efficacy (aphids killed): 100%

## Cc1cnn(-c2ncc(C(=O)N(C)c3cccnc3)n2C)c1 [I-1-021]
[1]; [4]
  Logp [n]: 1.29
Myzus persicae [2]
  efficacy (aphids killed): 100%
Myzus persicae [3]
  efficacy (aphids killed): 100%

## Cc1cn(-c2ncc(C(=O)N(C)c3cccnc3)n2C)nc1C [I-1-023]
[1]; [4]
  Logp [n]: 1.42

## Cc1ccn(-c2ncc(C(=O)N(C)c3cccnc3)n2C)n1 [I-1-024]
[1]; [4]
  Logp [n]: 1.18

## CN(C(=O)c1cnc(-n2ccnc2)n1C)c1cccnc1 [I-1-025]
[1]
  Logp [n]: 0.56

## CN(C(=O)c1cnc(-n2cnc(Cl)n2)n1C)c1cccnc1 [I-1-026]
[1]; [4]
  Logp [n]: 1.17

## CN(C(=O)c1cnc(-n2cc3c(n2)CCC3)n1C)c1cccnc1 [I-1-027]
[1]; [4]
  Logp [n]: 1.5

## CN(C(=O)c1cnc(-n2ncc(C#N)c2N)n1C)c1cccnc1 [I-1-028]
[1]; [4]
  Logp [n]: 0.78

## CCN(C(=O)c1cnc(-n2ccc(C#N)n2)n1C)c1cccnc1 [I-1-029]
[1]; [4]
  Logp [n]: 1.53

## CC(C)c1cnn(-c2ncc(C(=O)N(C)c3cccnc3)n2C)c1 [I-1-030]
[1]; [4]
  Logp [n]: 1.84

## CN(C(=O)c1cnc(-n2cnc(C#N)n2)n1C)c1cccnc1 [I-1-031]
[1]; [4]
  Logp [n]: 1.22
Boophilus microplus
  efficacy (laying of fertile eggs): 80%
